Literature values in patent US20150190413A1, “COMPOSITIONS AND METHODS FOR THE TREATMENT OF BLADDER CANCER” (Endo Pharmaceuticals Solutions Inc., priority 2007, published 2015).
Read-outs that look alike come from different tables or passages of the source.

Tested on: epithelium of the bladder
Settings: rabbit

Effect on epithelium of the bladder (five percent solutions of DMSO in water): sensitive
Effect on bladder cells (one hundred percent DMSO): fixed
Effect on epithelium of the bladder (twenty percent solutions of DMSO in water): loss of epithelial cells
SMILES: C[S+](C)[O-] [DMSO, dimethyl sulfoxide]
